Like-named read-outs stand apart in the source and are kept apart here.
How the values were obtained:
[1] = target: T1, mouse Pgp transporter (Mus musculus, UniProt P21447); details: 250 μM digoxin
Protocol: Control acrylamide titrations were performed in the presence of N-acetyl-L-tryptophanamide (NATA) to estimate the degree of non-specific quenching [55]. Fluorescence intensities were corrected for with eqn (3) [57]. To produce the Stern–Volmer plots, the Fcorrected,0/Fcorrected was plotted as a function of the acrylamide concentration. The degree of dynamic tryptophan quenching was estimated from the slopes of the Stern–Volmer curves, which is related to KSV by Fcorrected,0/Fcorrected = 1 + KSV[Q]

[2] = target: T1, mouse Pgp transporter
[3] = target: T1, mouse Pgp transporter; remark: listed apart in the source
Description: (§1) Drug-induced quenching of protein fluorescence with Pgp reconstituted in liposomes was investigated on an Olis DM 45 spectrofluorimeter (Olis Corp). […] Drug-induced fluorescence quenching was corrected (Fcorrected) for background fluorescence, dilution and inner filter effects with eqn (3) [57]:
3 Fcorrected=F−B10^ɛexbex+ɛembemQ/2
(§2) where F is the measured protein fluorescence, B is the background and [Q] is the quenching ligand concentration. The molar absorption coefficients (ε) for excitation and emission are εex and εem respectively. […] The pathlength (b) along the excitation and emission axes are bex and bem respectively. Drug-induced quenching of protein fluorescence from complexation of the ligand to the protein is known as static quenching, and can be used to estimate the drug's affinity. Drug-induced fluorescence quenching from random collisions with the protein is known as dynamic quenching [57]. Regardless of the nature of the quenching, the fluorescence quenching curves were fit to eqn (4) [57]:
4 Fcorrected=Fcorrected,0/1+KQ
(§3) where Fcorrected,0 is the protein fluorescence in the absence of a quenching ligand and K is the association constant (KA) or the Stern–Volmer quenching constant (KSV) in the case of a static and dynamic quenching processes respectively.

[4] = test system: human Pgp from Caco-2 cells; details: read-out: Km for digoxin transport; cited from earlier work
[5] = target: T1, mouse Pgp transporter; remark: listed apart in the source
Description: (§4) Because of the complexity of the model shown in Figure 6A, the kinetics curves in Figures 6B and 6C were fit using the COPASI software package.

[6] = test system: human Pgp; details: read-out: Km for ATPase activation; Caco-2 membrane vesicles containing human Pgp; cited from earlier work
[7] = test system: Pgp; details: read-out: Km for ATPase activation (implied); CR1R12 cells; maximal activation not reached at 1000 μM digoxin; cited from earlier work
[8] = test system: human Pgp; details: read-out: Km for ATPase activation; human Pgp-enriched insect cell membranes; cited from earlier work
[9] = target: T1, mouse Pgp transporter; assay: biochemical
Description: as §1
3 Fcorrected=F−B10^ɛexbex+ɛembemQ/2
as §2
4 Fcorrected=Fcorrected,0/1+KQ
as §3

[10] = target: T1, mouse Pgp transporter; assay: biochemical; remark: listed apart in the source
Description: as §4

[11] = target: T1, mouse Pgp transporter; details: proton near the 1,4 β-linkage; 250 μM digoxin, 1 μM Pgp
Protocol: The STDD NMR procedure for membrane proteins was performed as described in [68]. […] The STDD NMR experiments were performed with a double pulsed field gradient spin echo pulse sequence to suppress background water, a 2s train of 50 ms shaped saturation pulses to selectively excite the protein and a total relaxation delay of 5 s [63]. […] Control experiments were performed under identical conditions with liposomes and the drugs. To produce the STDD NMR spectrum, ^1H STD NMR spectrum of liposomes with drugs was subtracted from the ^1H STD NMR spectrum of Pgp reconstituted in liposomes with drugs (ΔI). […] The STDD amplification factor was calculated using the following equation based on the STD amplification factor (eqn 5) [63]:
5 STDDamplificationfactor=L/PΔI/I0
where [P] is the protein concentration and I0 is the amplitude of the ^1H NMR peaks in the absence of saturating pulses.

T1 sequence (P21447 whole entry): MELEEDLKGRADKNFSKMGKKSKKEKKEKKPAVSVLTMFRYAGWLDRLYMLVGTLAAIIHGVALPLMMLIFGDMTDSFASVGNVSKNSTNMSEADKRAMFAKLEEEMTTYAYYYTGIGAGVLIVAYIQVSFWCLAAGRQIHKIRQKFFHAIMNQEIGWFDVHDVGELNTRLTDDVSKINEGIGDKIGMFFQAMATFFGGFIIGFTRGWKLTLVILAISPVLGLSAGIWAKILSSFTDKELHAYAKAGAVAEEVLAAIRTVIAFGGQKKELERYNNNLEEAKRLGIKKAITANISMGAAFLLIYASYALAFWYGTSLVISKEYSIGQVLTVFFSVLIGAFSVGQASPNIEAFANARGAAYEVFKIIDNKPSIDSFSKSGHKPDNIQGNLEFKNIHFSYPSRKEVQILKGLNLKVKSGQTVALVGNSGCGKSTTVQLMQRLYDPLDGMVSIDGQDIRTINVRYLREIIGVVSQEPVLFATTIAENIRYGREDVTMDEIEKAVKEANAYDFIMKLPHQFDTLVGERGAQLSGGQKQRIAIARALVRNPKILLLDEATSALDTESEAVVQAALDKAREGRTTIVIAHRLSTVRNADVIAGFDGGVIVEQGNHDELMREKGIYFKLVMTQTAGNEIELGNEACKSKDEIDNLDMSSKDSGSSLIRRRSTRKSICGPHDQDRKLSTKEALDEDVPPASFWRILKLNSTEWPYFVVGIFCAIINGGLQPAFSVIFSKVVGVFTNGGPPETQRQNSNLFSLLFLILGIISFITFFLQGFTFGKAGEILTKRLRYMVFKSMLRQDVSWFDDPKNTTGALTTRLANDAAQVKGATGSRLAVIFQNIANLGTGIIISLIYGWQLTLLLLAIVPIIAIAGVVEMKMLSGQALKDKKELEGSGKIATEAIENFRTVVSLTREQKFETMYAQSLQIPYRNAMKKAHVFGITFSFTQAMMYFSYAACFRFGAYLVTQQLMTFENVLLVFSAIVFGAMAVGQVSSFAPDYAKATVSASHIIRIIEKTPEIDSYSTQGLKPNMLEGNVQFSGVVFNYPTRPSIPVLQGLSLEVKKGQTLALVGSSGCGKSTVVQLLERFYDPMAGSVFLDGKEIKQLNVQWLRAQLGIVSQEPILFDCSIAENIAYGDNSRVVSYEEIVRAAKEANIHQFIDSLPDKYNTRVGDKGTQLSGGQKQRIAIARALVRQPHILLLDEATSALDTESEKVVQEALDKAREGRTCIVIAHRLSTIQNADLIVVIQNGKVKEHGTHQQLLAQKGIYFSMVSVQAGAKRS

C[C@H]1O[C@@H](O[C@H]2[C@@H](O)C[C@H](O[C@H]3[C@@H](O)C[C@H](O[C@H]4CC[C@@]5(C)[C@H](CC[C@@H]6[C@@H]5C[C@@H](O)[C@]5(C)[C@@H](C7=CC(=O)OC7)CC[C@]65O)C4)O[C@@H]3C)O[C@@H]2C)C[C@H](O)[C@@H]1O [digoxin]
KSV (acrylamide Stern-Volmer slope of Pgp) [1]: 2.29 ± 0.12 M⁻¹ | maximum Pgp-coupled ATPase activity reached ([2]; 50 nM Pgp in liposomes, verapamil maximum at 8 μM): ~1300 nmol/min/mg | fold activation of ATPase at maximum ([2]; relative to basal activity, verapamil at 8 μM): ~2 fold | VMAX of drug-induced ATP hydrolysis ([2]; verapamil fit to substrate inhibition eqn 2, digoxin fit to Michaelis-Menten eqn 1): 1344 ± 149.8 nmol/min/mg | K from fluorescence quenching ([3]; 37°C, no verapamil): 0.0030 ± 0.0008 µM⁻¹ | quenching of Pgp fluorescence at saturating digoxin ([3]; excitation 280 nm, emission 333 nm, 25°C): ~10% | Km [4]: 385 µM | average VMAX3 ([5]; average from fitting all curves): 1981 ± 207 nmol/min/mg | VMAX4,5, ATPase activation from simultaneous binding of digoxin and verapamil ([5]; both drugs bound, estimated by fitting with COPASI): 121 ± 139 nmol/min/mg | VMAX3 (digoxin, DDI model) ([5]; in the absence of verapamil): 1983 nmol/min/mg | Km [6]: 1.2 µM | Km [7]: > 500 µM | Km [8]: 83.7 µM | Kd [9]: 100 ± 18 µM | Kd ([10]; KD3 (digoxin, DDI model), in the absence of verapamil): 239 µM | Kd ([10]; KD4, affinity of digoxin to Pgp in the presence of verapamil, estimated indirectly by fitting with COPASI): 292 ± 89 µM | Kd ([10]; average KD3, average from fitting all curves): 206 ± 53 µM | highest STDD amplification factor [11]: ~8

From PMC4793304 (Bioscience Reports, 2016)
